Results taken from patent US20240156902A1, “METHODS OF TREATING NEURODEGENERATIVE DISORDERS WITH INTRANASAL NF-KAPPAB ESSENTIAL MODIFIER (NEMO)-BINDING DOMAIN (NBD) PEPTIDE” (Rush University Medical Center, priority 2021, published 2024).
Like-named read-outs stand apart in the source and are kept apart here.

What was measured:
[1] = system: NF-κB; test: NF-κB activation in nigra of PFF-seeded A53T mice (acetylated p65 in microglia); type: in vivo, mouse; conditions: intranasal 0.1 mg/kg/d for 1 month
Experimental: (§1) Following 2 months of surgery, animals received wild type NBD (wtNBD) at a dose of 0.1 mg/kg body weight/day intranasally. After 1 month of wtNBD treatment, behavioral analyses were performed followed by immunohistochemistry and different biochemical experiments.
FIG. 2A and FIG. 2B show the results following intranasal administration of wtNBD peptide inhibiting NF-κB activation in the nigra of PFF-seeded mouse model of Lewy body diseases. A53T transgenic mice were seeded with PFF bilaterally and following 2 months of brain surgery, animals were given intranasal administration of 0.1 mg/kg wtNBD peptide daily. Activation of NF-κB in nigra was monitored by evaluating the level of acetylated (K310) p65 in Ibal+ve microglia in different groups of mice. Marked up-regulation of microglial acetylated p65 level in the SN of PFF-seeded mice was found compared to the PBS-injected mice (FIG. 2A and FIG. 2B). […] Statistical significance was determined by one-way ANOVA followed by Tukey's multiple comparison tests. *p<0.05, ***p<0.001 indicate significance compared to respective groups. Values are given as mean±SEM (n=4 per group). […]
(§2) Following 1 month of wtNBD administration, NF-κB activation in substantia nigra (SN) and spreading of α-syn in both SN and motor cortex were monitored. […]

[2] = system: α-syn; test: α-syn spreading from striatum to nigra and motor cortex in PFF-seeded A53T mice (pSyn129 immunostaining, α-syn immunoblot); type: in vivo, mouse; conditions: intranasal 0.1 mg/kg/d for 1 month
Experimental: as §1
Propagation of α-syn in PFF-seeded A53T mouse brain was monitored in SN by pSyn129 immunostaining and relative intensity measurement (FIG. 3A, FIG. 3B) and also by immunoblotting total α-syn in Triton X-100 soluble and insoluble fractions (FIG. 3C, FIG. 3D). The ratio of α-syn to actin is shown in the diagrams (FIG. 3E, FIG. 3F). Level of pSyn129 in motor cortex was assessed by immunohistochemistry (FIG. 3G, FIG. 3H). Two sections from each brain were used for immunostaining and pSyn129 specific intensity was analysed by Fiji. One-way ANOVA followed by Tukey's multiple comparison tests was conducted for statistical analyses. **p<0.01, ***p<0.001 indicate significance compared to respective groups. Values are given as mean±SEM (n=4 animals per group).
(§3) The wtNBD peptide (SEQ ID NO: 4) was solubilized in normal saline in such a way so that each mouse receives 0.1 mg/kg of body weight NBD peptide in 2.5 μl of saline. […]
as §2

[3] = system: dopaminergic neurons; test: Parkinsonian pathology in PFF-seeded A53T mice (TH immunohistochemistry, TH immunoblot, striatal neurotransmitters); type: in vivo, mouse; conditions: intranasal 0.1 mg/kg/d for 1 month
Experimental: (§4) FIG. 4A-L depicts the results following intranasal administration of wtNBD peptide reducing Parkinsonian pathology in PFF-seeded mouse model of Lewy body diseases. PFF-seeded A53T animals were given intranasal administration of 0.1 mg/kg wtNBD peptide daily for one month Parkinsonian pathology was evaluated by TH immunohistochemistry of nigral sections (FIG. 4A), immunoblotting of total TH level in SN (FIG. 4B and FIG. 4C), assessing striatal level of dopamine (DA), and its metabolites 3,4-dihydroxyphenyl acetate (DOPAC), homovanillic acid (HVA) (FIG. 4D-F). Behavioral analyses of animals were performed by open field test (FIG. 4G), where movement parameters such as distance (FIG. 4H), velocity (FIG. 4I), cumulative duration (FIG. 4J) and rearings (FIG. 4K) were recorded. Feet movement was analysed by rotarod test (FIG. 4L). Statistical significance was determined by one-way ANOVA followed by Tukey's multiple comparison tests. *p<0.05, **p<0.01, ***p<0.001 indicate significance compared to respective groups. Values are given as mean±SEM (n=4 per group).
The wtNBD peptide (SEQ ID NO: 4) was solubilized in normal saline in such a way so that each mouse receives 0.1 mg/kg of body weight NBD peptide in 2.5 μl of saline. Then 2.5 μl of wtNBD solution was administered in mice through each nostril every day for a total of 30 days. Mice were hold in supine condition while administering wtNBD solution. See Rangasamy et al. “Selective disruption of TLR2-MyD88 interaction inhibits inflammation and attenuates Alzheimer's pathology” (2018) J Clin Invest 128, 4297-4312. Intranasal treatment was started for preformed α-syn fibril (PFF) or PBS injected A53T animals at the age of 5 months (2 months following the brain surgery) for the next 30 days. Aged A53T animals (8 months old) were also treated with wtNBD peptides for 1 month followed by behavioural tests and other experiments at the age of 9 months.
Next, the effect of intranasal wtNBD on PFF-induced Parkinsonian pathologies was monitored. […] Locomotor deficit was also evident by rotarod analysis (FIG. 4L).

[4] = system: PFF-seeded A53T transgenic mice; test: Locomotor activities of PFF-seeded A53T mice (open field test, rotarod); type: in vivo, mouse; conditions: intranasal 0.1 mg/kg/d for 1 month
Experimental: as §4, §3
Next, the effect of intranasal wtNBD on PFF-induced Parkinsonian pathologies was monitored. […]

[5] = in vivo; cited from earlier work
[6] = system: NF-κB; conditions: cultured brain cells; cited from earlier work
[7] = system: NF-κB; conditions: in vivo in the brain; cited from earlier work

Substance | microglial acetylated (K310) p65 level in the SN [1] | level of pSyn129 in nigral neurons (relative optical density in SN) ([2]; PFF-seeded A53T mice) | accumulation of pSyn129 in cortical neurons (motor cortex) ([2]; compared to saline-treated PFF-seeded mice) | nigral TH neurons [3] | nigral TH protein level [3] | striatal DA level [3] | movement deficits (open field distance, velocity, cumulative duration, rearing; rotarod) [4] | entry into the brain [5] | block of the function of NF-κB [6] | block of the function of NF-κB [7]
DRQIKIWFQNRRMKWKKLDWSWL (DRQIKWFQNRRMKWKKLDWSWL) [wtNBD] | significantly decreased | drastically reduced | reduced accumulation | significantly protected | significantly protected | significantly protected | significantly inhibited | enters into the brain | – | –
LDWSWL [truncated hexapeptide of the wtNBD] | – | – | – | – | – | – | – | – | sufficient to block | sufficient to block
